This note sets out measurements from EPA's ToxValDB 9.5 (doi:10.2903/j.efsa.2010.1526).

≈ marks a conversion by molar mass, not a printed value.

Series [1] has as its system Apis mellifera. As to conditions: acute; duration: 48 hours; oral; unspecified; mortality.
Series [2] concerns Bird.
Series [3] has as its system Oryctolagus sp.
For series [4], the system named is Rattus norvegicus. Particulars: oral.
Series [5] deals with Bibionidae. Particulars: chronic/long-term; duration: 17 days.
Series [6] deals with Hypoaspis aculeifer. Particulars: chronic/long-term; duration: 14 days.
Series [7] relates to Tagia sp. Particulars: acute; duration: 14 days; mortality.
The test system of series [8] is Oncorhynchus mykiss. Particulars: acute; duration: 96 hours; mortality.
Series [9] has as its system Canidae. As to conditions: chronic; duration: 1 years; oral; Dog Other; clinical chemistry.

Usually NOAEL stands for the highest tested level that showed no adverse finding. In the case of `C=CCOC(Cn1ccnc1)c1ccc(Cl)cc1Cl` (stereo not drawn) [Imazalil], the LD50 in series [1] was over 35.1 µg/piece; in [2] (acute, oral, unspecified, mortality), 510 mg/kg-day; in series [4] (acute, mortality), 227 mg/kg-day. For the same molecule, the NOEC worked out at 24 mg/kg-day in series [2] (chronic/long-term), 0.181 mg/L in [5] and 107 mg/kg in [6]. For the same molecule, the LC50 is over 516 mg/kg-day in series [2] (short-term, oral, feed, mortality); 541 mg/kg in [7]; 1.48 µg/mL (≈ 4.98 µM) in series [8]. Moreover, the NOAEL in [3] (developmental, development) is 5 mg/kg-day; in series [4] (chronic, duration: 6 months, clinical chemistry), 5 mg/kg-day; in series [9], 2.5 mg/kg-day. The molecule also registered an NOEL in series [3] (reproduction developmental, reproduction) of 20 mg/kg-day.
